Test results: ChEMBL document CHEMBL1201862, “PubChem BioAssay data set” (2004)
The source made the active and inactive calls.

How the values were obtained:
[1] = molecular target: T1, E3 ubiquitin-protein ligase XIAP (Homo sapiens, UniProt P98170); assay: Counter Screen using XIAP-Bir3 for Chemical Antagonists of Bir1/2 domains of IAP-family anti-apoptotic proteins. [Related pubchem assays (depositor defined):AID1018, AID1449, AID1514, AID1638, AID1749, AID1750, AID488957, AID488963]
[2] = molecular target: T1, E3 ubiquitin-protein ligase XIAP; assay: XIAP antagonists, biochemical, IAP family, fluorescence polarization (AID 1018); assay type: functional
[3] = molecular target: T2, Polyadenylate-binding protein 1 (Homo sapiens, UniProt P11940); assay: PABP1 MLLE–PAM2 interaction inhibitors, dose response, miRNA deadenylation inhibitor project, biochemical, fluorescence polarization, Cy5-PAM2 peptide, secondary (AID 602260); assay type: functional; conditions: read-out: IC50_Mean
T2 sequence (P11940 whole entry): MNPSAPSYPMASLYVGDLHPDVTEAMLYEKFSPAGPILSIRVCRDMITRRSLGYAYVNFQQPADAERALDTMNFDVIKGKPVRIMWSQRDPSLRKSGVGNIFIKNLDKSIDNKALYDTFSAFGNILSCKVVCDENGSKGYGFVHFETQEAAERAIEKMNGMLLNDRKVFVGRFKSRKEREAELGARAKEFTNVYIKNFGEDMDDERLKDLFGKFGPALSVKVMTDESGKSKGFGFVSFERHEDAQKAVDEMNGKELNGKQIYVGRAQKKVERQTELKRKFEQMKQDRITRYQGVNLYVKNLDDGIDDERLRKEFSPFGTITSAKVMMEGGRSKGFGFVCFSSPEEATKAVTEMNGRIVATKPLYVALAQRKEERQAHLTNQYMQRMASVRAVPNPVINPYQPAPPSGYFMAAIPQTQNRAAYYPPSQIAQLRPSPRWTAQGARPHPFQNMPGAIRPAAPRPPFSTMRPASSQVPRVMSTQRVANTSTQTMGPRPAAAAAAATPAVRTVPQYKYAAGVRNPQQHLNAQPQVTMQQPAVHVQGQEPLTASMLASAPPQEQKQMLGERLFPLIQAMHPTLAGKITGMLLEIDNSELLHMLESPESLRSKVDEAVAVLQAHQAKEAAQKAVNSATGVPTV

[4] = molecular target: T2, Polyadenylate-binding protein 1; assay: PABP1 MLLE–PAM2 binding inhibitor potency, dose response, biochemical, fluorescence polarization, FITC-PAM2 peptide (AID 602259); assay type: functional; conditions: read-out: IC50_Mean
[5] = molecular target: Peroxisome proliferator-activated receptor gamma/Nuclear receptor coactivator 2 (Homo sapiens, UniProt P37231); assay: TR-FRET dose response biochemical High Throughput Screening assay for agonists of the steroid receptor coactivator 2 (SRC-2) recruitment by the peroxisome proliferator-activated receptor gamma (PPAR gamma): non-selective agonists. [Related pubchem assays: 1297, 1032 ]; assay type: functional
[6] = molecular target: Peroxisome proliferator-activated receptor gamma/Nuclear receptor coactivator 1 (Homo sapiens, UniProt P37231); assay: TR-FRET dose response biochemical High Throughput Screening assay for agonists of the steroid receptor coactivator 1 (SRC-1) recruitment by the peroxisome proliferator-activated receptor gamma (PPAR gamma): non-selective agonists. [Related pubchem assays (depositor defined):AID1300, AID1808, AID504735, AID631]; assay type: protein assay
[7] = molecular target: Peroxisome proliferator-activated receptor gamma/Nuclear receptor coactivator 3 (Homo sapiens, UniProt P37231); assay: TR-FRET dose response biochemical High Throughput Screening assay for agonists of the steroid receptor coactivator 3 (SRC-3) recruitment by the peroxisome proliferator-activated receptor gamma (PPAR gamma): non-selective agonists. [Related pubchem assays: 1301 (Confirmation screen.), 1048 (Primary screen.)]; assay type: functional
Peroxisome proliferator-activated receptor gamma/Nuclear receptor coactivator 3, sequence (P37231 whole entry): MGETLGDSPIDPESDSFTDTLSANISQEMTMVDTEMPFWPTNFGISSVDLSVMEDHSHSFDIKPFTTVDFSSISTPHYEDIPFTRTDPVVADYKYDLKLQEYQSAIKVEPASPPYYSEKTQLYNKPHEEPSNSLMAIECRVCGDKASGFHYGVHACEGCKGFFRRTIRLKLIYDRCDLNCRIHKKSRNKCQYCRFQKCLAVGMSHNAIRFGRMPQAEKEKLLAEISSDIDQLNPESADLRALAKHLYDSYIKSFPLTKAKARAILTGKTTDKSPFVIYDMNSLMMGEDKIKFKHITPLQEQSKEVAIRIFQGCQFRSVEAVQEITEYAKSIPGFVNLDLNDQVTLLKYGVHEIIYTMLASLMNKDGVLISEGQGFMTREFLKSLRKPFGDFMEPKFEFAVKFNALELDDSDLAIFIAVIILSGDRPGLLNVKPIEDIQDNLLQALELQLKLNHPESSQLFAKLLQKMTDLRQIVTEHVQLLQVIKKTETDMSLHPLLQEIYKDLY
Peroxisome proliferator-activated receptor gamma/Nuclear receptor coactivator 3, sequence (Q9Y6Q9 whole entry, further chain): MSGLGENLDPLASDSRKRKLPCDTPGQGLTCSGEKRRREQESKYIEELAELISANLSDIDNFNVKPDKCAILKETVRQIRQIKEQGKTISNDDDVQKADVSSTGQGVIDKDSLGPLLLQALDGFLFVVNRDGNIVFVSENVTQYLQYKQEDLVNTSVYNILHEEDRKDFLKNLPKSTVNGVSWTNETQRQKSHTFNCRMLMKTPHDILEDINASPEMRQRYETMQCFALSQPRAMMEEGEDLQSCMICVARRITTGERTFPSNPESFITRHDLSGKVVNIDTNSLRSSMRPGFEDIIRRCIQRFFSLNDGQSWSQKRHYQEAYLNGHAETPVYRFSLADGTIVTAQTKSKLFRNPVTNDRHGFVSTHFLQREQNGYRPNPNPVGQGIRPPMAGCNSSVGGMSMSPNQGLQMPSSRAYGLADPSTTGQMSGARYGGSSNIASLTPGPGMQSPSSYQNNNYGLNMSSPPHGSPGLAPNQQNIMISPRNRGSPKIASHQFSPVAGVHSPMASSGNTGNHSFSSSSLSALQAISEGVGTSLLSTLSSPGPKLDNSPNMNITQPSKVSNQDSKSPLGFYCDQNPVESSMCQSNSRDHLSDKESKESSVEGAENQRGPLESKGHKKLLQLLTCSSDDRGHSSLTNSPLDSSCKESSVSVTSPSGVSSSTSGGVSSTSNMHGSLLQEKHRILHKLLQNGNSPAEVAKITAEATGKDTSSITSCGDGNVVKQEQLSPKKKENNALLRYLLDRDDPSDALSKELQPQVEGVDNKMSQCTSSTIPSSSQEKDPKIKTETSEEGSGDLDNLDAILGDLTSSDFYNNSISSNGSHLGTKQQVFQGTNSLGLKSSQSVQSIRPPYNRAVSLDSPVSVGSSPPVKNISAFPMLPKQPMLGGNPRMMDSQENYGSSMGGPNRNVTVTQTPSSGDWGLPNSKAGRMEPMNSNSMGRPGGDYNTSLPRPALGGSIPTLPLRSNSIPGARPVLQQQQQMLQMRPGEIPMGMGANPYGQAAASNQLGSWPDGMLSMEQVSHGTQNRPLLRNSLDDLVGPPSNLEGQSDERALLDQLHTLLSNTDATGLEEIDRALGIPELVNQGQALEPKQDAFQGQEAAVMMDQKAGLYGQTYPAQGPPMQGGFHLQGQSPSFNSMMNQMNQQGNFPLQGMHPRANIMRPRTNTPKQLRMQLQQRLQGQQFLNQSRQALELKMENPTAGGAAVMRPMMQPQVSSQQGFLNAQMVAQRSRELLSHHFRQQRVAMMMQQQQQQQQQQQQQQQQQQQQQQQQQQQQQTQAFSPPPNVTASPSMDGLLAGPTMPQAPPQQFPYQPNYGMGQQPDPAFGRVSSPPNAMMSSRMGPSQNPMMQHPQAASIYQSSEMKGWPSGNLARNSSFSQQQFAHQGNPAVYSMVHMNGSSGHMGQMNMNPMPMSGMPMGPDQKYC

Phosphomannomutase 2 = Phosphomannomutase 2 (Homo sapiens, UniProt O15305); assay: Counter screen SAR assay for PMM2 inhibitors via a fluorescence intensity assay. [Related pubchem assays (depositor defined):AID1545, AID1574]
Phosphomannomutase 2, sequence (O15305 whole entry): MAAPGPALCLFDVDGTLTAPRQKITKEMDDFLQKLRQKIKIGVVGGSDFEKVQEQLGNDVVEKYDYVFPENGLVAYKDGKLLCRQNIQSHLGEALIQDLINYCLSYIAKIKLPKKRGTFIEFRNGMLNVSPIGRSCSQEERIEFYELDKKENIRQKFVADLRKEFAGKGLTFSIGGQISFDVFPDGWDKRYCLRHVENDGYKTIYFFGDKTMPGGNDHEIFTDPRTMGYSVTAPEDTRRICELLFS

[8] = molecular target: T3, Mannose-6-phosphate isomerase (Homo sapiens, UniProt P34949); assay: PMI enzyme inhibitors, confirmation, biochemical, fluorescence intensity (AID 1535)
T3 sequence (P34949 whole entry): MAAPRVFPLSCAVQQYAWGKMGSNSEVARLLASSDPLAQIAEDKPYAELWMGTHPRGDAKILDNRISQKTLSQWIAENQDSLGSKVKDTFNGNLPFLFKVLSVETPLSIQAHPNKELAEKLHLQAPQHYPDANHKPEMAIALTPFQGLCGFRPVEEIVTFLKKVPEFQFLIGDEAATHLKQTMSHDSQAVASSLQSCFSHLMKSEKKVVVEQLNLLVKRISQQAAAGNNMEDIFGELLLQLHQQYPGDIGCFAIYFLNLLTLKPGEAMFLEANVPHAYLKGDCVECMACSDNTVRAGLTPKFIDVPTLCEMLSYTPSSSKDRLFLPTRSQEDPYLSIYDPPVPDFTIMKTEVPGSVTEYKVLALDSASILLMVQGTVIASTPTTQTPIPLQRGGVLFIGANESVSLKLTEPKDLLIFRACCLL

[9] = molecular target: T3, Mannose-6-phosphate isomerase; assay: inhibitors of human PMI, primary screen, biochemical, fluorescence intensity, coupled assay (AID 1209)
SUMO-activating enzyme = SUMO-activating enzyme (Homo sapiens, UniProt Q9UBT2); assay: SUMOylation inhibitor hit validation, confirmation, SUMOylation inhibitor project, biochemical, AlphaScreen (AID 2018); assay type: functional
[10] = molecular target: T4, Corticotropin-releasing factor receptor 2/Corticotropin-releasing factor-binding protein (Homo sapiens, UniProt P24387+Q13324); assay: Dose Response confirmation of uHTS hits for small molecule antagonists of the CRF-binding protein and CRF-R2 receptor complex.; assay type: functional; conditions: read-out: IC50_Mean
T4 sequence (Q13324 whole entry): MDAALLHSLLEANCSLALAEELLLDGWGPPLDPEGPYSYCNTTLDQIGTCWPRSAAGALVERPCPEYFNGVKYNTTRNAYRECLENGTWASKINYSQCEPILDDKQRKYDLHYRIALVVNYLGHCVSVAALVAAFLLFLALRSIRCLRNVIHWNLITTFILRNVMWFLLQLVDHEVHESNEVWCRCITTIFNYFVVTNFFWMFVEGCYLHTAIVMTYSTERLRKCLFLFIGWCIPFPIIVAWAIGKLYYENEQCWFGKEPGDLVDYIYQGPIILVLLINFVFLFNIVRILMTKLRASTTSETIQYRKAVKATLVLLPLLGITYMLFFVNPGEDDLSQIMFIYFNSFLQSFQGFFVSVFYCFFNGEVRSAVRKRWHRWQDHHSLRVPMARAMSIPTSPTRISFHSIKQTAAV
T4 sequence (P24387 whole entry): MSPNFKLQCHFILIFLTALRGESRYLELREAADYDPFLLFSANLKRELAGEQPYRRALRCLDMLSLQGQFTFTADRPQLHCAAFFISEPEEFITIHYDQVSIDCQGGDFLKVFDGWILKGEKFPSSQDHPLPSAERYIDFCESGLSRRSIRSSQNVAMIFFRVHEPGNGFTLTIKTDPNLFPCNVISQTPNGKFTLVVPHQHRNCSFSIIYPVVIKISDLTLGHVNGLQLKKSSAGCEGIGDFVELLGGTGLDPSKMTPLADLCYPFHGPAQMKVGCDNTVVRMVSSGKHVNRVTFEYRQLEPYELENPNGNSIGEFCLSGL

[11] = molecular target: T4, Corticotropin-releasing factor receptor 2/Corticotropin-releasing factor-binding protein; assay: activators of CRF receptor 2 with binding protein – uHTS hits, confirmation (AID 602473); assay type: functional; conditions: read-out: EC50_Mean
[12] = molecular target: T5, Beta-adrenergic receptor kinase 1 (Homo sapiens, UniProt P25098); assay: GRK2 inhibitors displacing RNA aptamer, dose response, biochemical, flow cytometry beads, FAM-aptamer, powder set 1 (AID 588720)
T5 sequence (P25098 whole entry): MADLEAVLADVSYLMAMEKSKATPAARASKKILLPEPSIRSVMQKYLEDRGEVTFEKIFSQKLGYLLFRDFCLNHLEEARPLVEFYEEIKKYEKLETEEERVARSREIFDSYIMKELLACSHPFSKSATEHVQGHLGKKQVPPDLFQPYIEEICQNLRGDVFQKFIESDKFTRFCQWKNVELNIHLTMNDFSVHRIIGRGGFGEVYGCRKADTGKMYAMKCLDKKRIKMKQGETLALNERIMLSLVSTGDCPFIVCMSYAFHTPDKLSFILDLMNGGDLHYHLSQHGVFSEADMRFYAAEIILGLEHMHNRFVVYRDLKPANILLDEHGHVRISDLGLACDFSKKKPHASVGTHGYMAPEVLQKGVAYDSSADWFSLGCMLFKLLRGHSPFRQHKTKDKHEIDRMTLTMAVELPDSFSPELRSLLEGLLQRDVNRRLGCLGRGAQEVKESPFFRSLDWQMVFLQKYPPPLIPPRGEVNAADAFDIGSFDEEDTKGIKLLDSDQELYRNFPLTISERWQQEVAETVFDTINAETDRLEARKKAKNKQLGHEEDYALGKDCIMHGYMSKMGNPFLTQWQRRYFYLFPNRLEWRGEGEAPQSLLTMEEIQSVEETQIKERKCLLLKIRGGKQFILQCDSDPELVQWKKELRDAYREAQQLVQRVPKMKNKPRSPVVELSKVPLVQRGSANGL

[13] = molecular target: Photoreceptor-specific nuclear receptor (Homo sapiens, UniProt Q9Y5X4); assay: NR2E3 inverse agonists, dose response, biochemical, TR-FRET (AID 463256); assay type: functional
Photoreceptor-specific nuclear receptor, sequence (Q9Y5X4 whole entry): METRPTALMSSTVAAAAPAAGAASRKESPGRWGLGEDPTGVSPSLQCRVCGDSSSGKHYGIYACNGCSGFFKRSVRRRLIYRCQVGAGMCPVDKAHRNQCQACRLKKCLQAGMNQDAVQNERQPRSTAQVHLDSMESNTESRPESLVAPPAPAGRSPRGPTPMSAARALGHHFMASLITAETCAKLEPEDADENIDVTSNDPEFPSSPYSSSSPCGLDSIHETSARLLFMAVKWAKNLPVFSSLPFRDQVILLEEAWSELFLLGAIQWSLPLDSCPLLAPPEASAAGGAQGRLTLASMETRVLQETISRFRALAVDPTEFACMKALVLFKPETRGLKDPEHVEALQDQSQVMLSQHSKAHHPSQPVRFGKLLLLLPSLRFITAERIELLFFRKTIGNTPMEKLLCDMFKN

[14] = molecular target: Peroxisome proliferator-activated receptor gamma/Nuclear receptor corepressor 2 (Homo sapiens, UniProt P37231+Q9Y618); assay: Counterscreen for NR2E3 inverse agonists: TR-FRET-based biochemical high throughput dose response assay to identify inverse agonists of the interaction between peroxisome proliferator-activated receptor gamma (PPARg) and nuclear receptor co-repressor 2 (NCOR2).; assay type: functional
[15] = molecular target: Lysine-specific demethylase 4A (Homo sapiens, UniProt O75164); assay: JMJD2A histone demethylase inhibitors, dose response, selectivity assay for GASC-1 inhibitor project, biochemical, DELFIA europium, cherry-picked samples (AID 488840)
Lysine-specific demethylase 4A, sequence (O75164 whole entry, the tested form may be a part): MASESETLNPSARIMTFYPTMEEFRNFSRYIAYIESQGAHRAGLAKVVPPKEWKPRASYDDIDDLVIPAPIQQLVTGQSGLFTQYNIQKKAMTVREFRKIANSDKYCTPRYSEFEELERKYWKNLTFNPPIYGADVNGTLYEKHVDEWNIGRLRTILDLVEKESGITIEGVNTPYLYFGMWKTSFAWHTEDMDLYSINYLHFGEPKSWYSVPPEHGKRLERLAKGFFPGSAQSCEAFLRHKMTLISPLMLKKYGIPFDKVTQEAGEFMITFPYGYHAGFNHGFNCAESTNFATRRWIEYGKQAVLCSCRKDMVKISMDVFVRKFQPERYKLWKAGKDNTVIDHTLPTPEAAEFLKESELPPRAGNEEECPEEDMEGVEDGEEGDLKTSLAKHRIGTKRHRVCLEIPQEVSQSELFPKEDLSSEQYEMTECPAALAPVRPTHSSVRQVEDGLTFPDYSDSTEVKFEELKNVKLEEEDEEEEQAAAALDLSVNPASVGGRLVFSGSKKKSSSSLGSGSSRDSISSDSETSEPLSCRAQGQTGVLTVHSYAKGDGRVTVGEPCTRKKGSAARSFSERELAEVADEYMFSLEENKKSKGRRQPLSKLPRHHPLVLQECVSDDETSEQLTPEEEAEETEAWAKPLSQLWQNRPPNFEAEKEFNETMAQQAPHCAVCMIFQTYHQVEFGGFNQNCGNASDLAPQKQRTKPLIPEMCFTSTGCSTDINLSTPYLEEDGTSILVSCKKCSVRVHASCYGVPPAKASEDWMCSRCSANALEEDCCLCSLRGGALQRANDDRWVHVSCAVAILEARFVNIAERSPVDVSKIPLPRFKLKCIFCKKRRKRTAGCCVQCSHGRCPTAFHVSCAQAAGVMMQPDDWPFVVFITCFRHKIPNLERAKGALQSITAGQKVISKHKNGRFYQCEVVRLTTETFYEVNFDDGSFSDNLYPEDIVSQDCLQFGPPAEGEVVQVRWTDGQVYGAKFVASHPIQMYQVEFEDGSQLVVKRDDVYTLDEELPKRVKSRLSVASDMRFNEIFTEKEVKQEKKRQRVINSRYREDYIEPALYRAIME

[16] = molecular target: Nucleotide-binding oligomerization domain-containing protein 2 (Homo sapiens, UniProt Q9HC29); assay: NOD2 signaling inhibitors, analog potency, SAR follow-up, cell-based, set 3 (AID 2799); assay type: functional
HEK293 [17] = assay: SAR analysis of compounds that are cytotoxic to HEK293 - Set 3. [Related pubchem assays (depositor defined):AID1575, AID1578, AID1848, AID1849, AID2001, AID2333, AID2334, AID2335, AID2337, AID2469]; assay type: functional, cell-based; conditions: Homo sapiens
Tumor necrosis factor [18] = molecular target: T6, Tumor necrosis factor (Homo sapiens, UniProt P01375); assay: TNFa-triggered NF-kB activation inhibitors, SAR follow-up, cell-based, set 3 (AID 2801); assay type: functional
T6 sequence (P01375 whole entry, the tested form may be a part): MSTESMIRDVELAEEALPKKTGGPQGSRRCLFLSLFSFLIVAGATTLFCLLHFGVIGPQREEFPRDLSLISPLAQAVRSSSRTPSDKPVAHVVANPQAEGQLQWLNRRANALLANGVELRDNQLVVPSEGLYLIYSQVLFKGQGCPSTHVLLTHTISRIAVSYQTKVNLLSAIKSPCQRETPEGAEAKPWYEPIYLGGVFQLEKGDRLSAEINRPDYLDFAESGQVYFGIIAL

[19] = molecular target: T7, Nucleotide-binding oligomerization domain-containing protein 1 (Homo sapiens, UniProt Q9Y239); assay: SAR analysis of compounds that inhibit NOD1 - Set 3. [Related pubchem assays (depositor defined):AID1566, AID1575, AID1578, AID1849, AID1852, AID2333, AID2335, AID2466]; assay type: functional
T7 sequence (Q9Y239 whole entry): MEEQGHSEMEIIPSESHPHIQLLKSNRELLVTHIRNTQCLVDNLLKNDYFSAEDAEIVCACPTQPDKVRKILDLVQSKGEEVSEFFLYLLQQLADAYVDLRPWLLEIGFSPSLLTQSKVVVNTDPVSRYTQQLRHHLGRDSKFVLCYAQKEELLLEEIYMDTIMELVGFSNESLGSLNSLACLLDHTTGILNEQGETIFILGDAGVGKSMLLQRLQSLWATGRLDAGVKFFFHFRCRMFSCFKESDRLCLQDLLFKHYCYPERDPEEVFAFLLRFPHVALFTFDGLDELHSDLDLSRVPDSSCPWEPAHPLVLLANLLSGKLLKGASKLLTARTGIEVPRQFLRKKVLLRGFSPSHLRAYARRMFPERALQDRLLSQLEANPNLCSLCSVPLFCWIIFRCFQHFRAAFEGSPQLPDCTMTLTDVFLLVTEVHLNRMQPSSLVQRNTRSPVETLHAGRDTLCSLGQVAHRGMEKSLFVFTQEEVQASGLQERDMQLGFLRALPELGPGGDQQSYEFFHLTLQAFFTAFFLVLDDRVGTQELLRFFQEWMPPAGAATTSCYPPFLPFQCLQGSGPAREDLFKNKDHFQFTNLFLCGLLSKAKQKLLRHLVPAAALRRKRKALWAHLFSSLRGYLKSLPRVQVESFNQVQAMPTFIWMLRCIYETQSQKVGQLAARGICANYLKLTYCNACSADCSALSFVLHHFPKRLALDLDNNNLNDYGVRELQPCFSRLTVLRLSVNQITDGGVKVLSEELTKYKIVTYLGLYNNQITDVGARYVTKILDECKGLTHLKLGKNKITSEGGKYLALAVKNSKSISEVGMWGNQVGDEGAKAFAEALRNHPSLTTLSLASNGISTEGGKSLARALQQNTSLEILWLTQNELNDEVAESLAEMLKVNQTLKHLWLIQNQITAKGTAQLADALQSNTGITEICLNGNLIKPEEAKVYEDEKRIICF

HEK293 [20] = assay: cells; conditions: Homo sapiens
Tumor necrosis factor [21] = molecular target: T6, Tumor necrosis factor; assay: TNFa-triggered NF-kB activation inhibitors, SAR follow-up, cell-based, revised (AID 2337); assay type: functional
[22] = molecular target: T7, Nucleotide-binding oligomerization domain-containing protein 1; assay: NOD1 signaling inhibitors, SAR follow-up, revised (AID 2333); assay type: functional

T1 sequence (P98170 whole entry): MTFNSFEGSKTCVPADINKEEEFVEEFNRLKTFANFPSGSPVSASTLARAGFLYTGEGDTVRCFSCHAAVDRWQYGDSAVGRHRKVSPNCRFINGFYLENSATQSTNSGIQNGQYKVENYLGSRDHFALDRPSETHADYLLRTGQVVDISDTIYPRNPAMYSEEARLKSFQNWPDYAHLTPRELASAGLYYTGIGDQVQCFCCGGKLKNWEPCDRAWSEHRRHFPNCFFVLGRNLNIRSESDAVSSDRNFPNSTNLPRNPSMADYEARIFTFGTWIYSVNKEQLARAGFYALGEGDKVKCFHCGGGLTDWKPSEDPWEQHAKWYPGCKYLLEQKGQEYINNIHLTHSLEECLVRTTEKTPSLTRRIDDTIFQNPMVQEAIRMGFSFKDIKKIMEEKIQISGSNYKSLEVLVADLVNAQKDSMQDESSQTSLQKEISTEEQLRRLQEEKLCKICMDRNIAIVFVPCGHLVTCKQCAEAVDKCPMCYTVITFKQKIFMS

Cc1cccc(N(CC(N)=O)C2SC(=O)N(c3ccccc3)C2=O)c1 (configuration not stated)
IC50 [1]: > 100 µM (inactive)
IC50 [2]: > 100 µM (not active)
IC50 [3]: > 66 µM (inactive)
IC50 [4]: > 66 µM (inactive)

Cc1ccc(-c2cc(C(=O)NCc3cn(C)nc3C)c3cc(Br)ccc3n2)cc1
EC50 [5]: 10.8 µM (not active)
EC50 [6]: 13.8 µM (inactive)
EC50 [7]: 40.7 µM (not active)

N#CC1=C2SCN(Cc3ccccc3)CN2C(=O)CC1c1ccc2c(c1)OCO2 (configuration not stated)
IC50 (Phosphomannomutase 2): > 100 µM (inactive)
IC50 [8]: 36.9 µM (active)
IC50 [9]: 16 µM (active)

CN(C)c1ccc(NC(=O)c2sc(SCC(=O)Nc3ccc(Br)cc3)nc2N)cc1
IC50 (SUMO-activating enzyme): 41.5 µM (active)

CC1=C(C(=O)NCc2ccccn2)C2(CCC(C)CC2)OC1=O (configuration not stated)
IC50 [1]: > 100 µM (inactive)
IC50 [10]: > 47.1 µM (inactive)
IC50 [2]: > 100 µM (not active)
EC50 [11]: > 53 µM (inactive)

Cc1cccc(CCNC(=O)CCS(=O)(=O)c2ccc(Br)cc2)c1
EC50 [12]: 22.3 µM (inactive)

Cc1nc2ccc3nc(NC(=O)c4ccc5c(c4)OCCO5)sc3c2s1
IC50 [13]: 0.813 µM (active)
EC50 [5]: 3.98 µM (active)
EC50 [6]: 4.06 µM (active)
IC50 [14]: 1.23 µM (active)
EC50 [7]: 10.3 µM (not active)

O=c1n(Cc2ccccc2)c2cc(Cl)cnc2n1Cc1ccccc1
AC50 [15]: 9.18 µM (active)

Nc1cc(-c2ccccc2)nn1S(=O)(=O)c1ccc(F)c(Cl)c1
IC50 [16]: > 20 µM (inactive)
IC50 (HEK293 [17]): > 20 µM (inactive)
IC50 (Tumor necrosis factor [18]): > 20 µM (inactive)
IC50 [19]: > 20 µM (inactive)

COc1ccc(NC(=O)c2ccc(CN3CCc4ccccc4C3)cc2)cc1
IC50 (HEK293 [20]): > 20 µM (inactive)
IC50 (Tumor necrosis factor [21]): 0.65 µM (active)
IC50 [22]: 0.513 µM (active)

COC(=O)CC1=NN(c2ccccc2)C(=O)/C1=C/Nc1ccc(C)cc1
IC50 (HEK293 [20]): > 20 µM (inactive)
IC50 (Tumor necrosis factor [21]): > 20 µM (inactive)
IC50 [22]: > 20 µM (inactive)
